Data: patent publication US20040067565A1, “Selective functionalization of hydrocarbons with isolated oxygenases and mediator based regeneration” (priority 2002, published 2004)
Marks after values point to notes of the source that are not given here.

Legend:
[1] = target: monooxygenase component of styrene monooxygenase (StyA) (Pseudomonas sp, UniProt O50214); assay: [Cp*Rh(bpy)(H2O)]2+ driven, StyA-catalyzed epoxidation / sulfoxidation; type: biochemical
Experimental: In a typical experimental setup 1 ml total volume was placed in an Eppendorf cup in a Thermomixer. The temperature was set to 37° C. and the reaction mixture was shaken thoroughly to ensure O2 intake.
Product formation was followed by reversed phase HPLC. The HPLC system (Merck) consisted of a D-7000 controller, L-7200 autosampler, L-7400 UV detector, L-7100 liquid chromatography pump and was fitted with a CC250/4 Nucleosil 100-5 C18 HD column. Samples were eluted under isocratic conditions using 60% acetonitrile and 40% water at a flow rate of 1 ml×min^−1. The elution pattern was monitored at 210 nm.
0.2 mM [Cp*Rh(bpy)(H2O)]^2+, 0.05 mM FAD, 0.005 mM FMN, 2 mM styrene, 280 U catalase, and 1.16 μM StyA in 50 mM potassium phosphate buffer with 150 mM sodium formate were incubated at 37° C. and agitation at 1500 rpm. At intervals, reactions were stopped by addition of one equivalent volume of cold acetonitrile. After centrifugation (15 min at 4° C. and 23000×g the upper phase was analyzed by reverse phase HPLC. Concentrations were corrected according to the phase ratio after centrifugation. Results from this experiment are given in FIG. 10 and Table 3.
0.2 mM [Cp*Rh(bpy)(H2O)]^2+, 0.02 mM FAD, 2 mM substrate, 200 U catalase, and 1.47 μM StyA in 50 mM potassium phosphate buffer with 150 mM sodium formate were incubated at 37° C. and agitation at 1500 rpm.
Styrene oxide was analyzed using a CC200/4 Nucleodex α-PM (Machery-Nagel). As eluent 60% methanol and 40% 6.2 mM TEAA in water was used at a flow rate of 0.7 ml×min^−1. 1,2-Dihydronaphthalene oxide, trans-β-Methylstyrene oxide, indene oxide, and methyl phenyl sulfoxide were extracted from the reaction buffer with one aliquot hexane und analyzed unsing normal phase HPLC with a CHIRACEL OB—H column and hexane:isopropanol 95:5 (9:1 for methyl phenyl sulfoxide) at a flow rate of 0.5 ml*min^−1 as mobile phase. As reference either authentical samples of racemic epoxides were used. (Table 4). […]

[2] = [Cp*Rh(bpy)(H2O)]2+ catalyzed reduction of FAD leading to hydrogen peroxide
Experimental: (§1) Hydrogen peroxide was determined enzymatically, based on the method by Saito et al.. Samples were mixed with a solution of 0.6 mM 4-amino antipyrine, 9 mM phenol, and 6 U×ml^−1 peroxidase from Coprinus cinereus. After one minute incubation at room temperature the absorption at 550 nm was measured.
0.2 mM [Cp*Rh(bpy)(H2O)]^2+, 0.05 mM FAD, and 1.16 μM StyA in. 50 mM potassium phosphate buffer with 150 mM sodium formate were incubated at 37° C. and agitation at 1500 rpm. At intervals samples were taken and analyzed for their hydrogen peroxide concentration. From the results a catalytic performance of 48 turnovers per hour for [Cp*Rh(bpy)(H2O)]^2+ was calculated.
In a second experiments a reaction mixture of this composition was supplemented with 2 mM styrene. After 15 min the reaction was stopped and analyzed for hydrogen peroxide and styrene oxide. 0.28 mM styrene oxide and […] were found at this time corresponding to an overall catalytic activity of [Cp*Rh(bpy)(H2O)]^2+ of 47 turnovers per hour.
as §1, with “peroxide produced” for “peroxide”, “enzymatically with a modified assay by” for “enzymatically, based on the”
0.2 mM [Cp*Rh(bpy)(H2O)]^2+, 0.225 mM FAD dissolved in O2 saturated potassium phosphate buffer were thermostated at 37° C. in an air-tight reaction vessel (O2-measurements: 2 ml, UV-measurements: 1 ml quartz kuvette). Reactions were started on addition of sodium formate stock solution (final concentration: 150 mM).
1 ml of 19 μM Cp*Rh(bpy)(H2O)]^2+ and 0-200 μM FAD in 50 mM potassium phosphate buffer (pH 7.0, c(NaHCO2)=150 mM) are placed in a 1.5 ml Eppendorf vial and incubated at 37° C. and agitation at 1500 rpm. At intervals […] samples are withdrawn and analyzed for their H2O2 content (FIG. 17).

[3] = tested on: 2-hydroxybiphenyl-3-monooxygenase (HbpA, E.C. 1.14.13.44); assay: Residual HbpA activity while incubation with [Cp*Rh(bpy)(H2O)]2+; type: biochemical
Experimental: HbpA-activities were determined by UV-spectroscopy according to literature methods by supplementing the experiment buffer with 0.1 mM NADH and observation of NADH-depletion at 340 nm for 1 minute, afterwards 2 mM of 2-hydroxybiphenyl were added and NADH depletion was measured for 1 minute. HbpA activity was determined as difference of both rates.
In a first experiment 0.11 U*ml^−1 HbpA of a partially enriched crude extract from recombinant E. coli overexpressing HbpA was incubated at 30° C. with 0, 0.02, 0.04, and 0.1 mM [Cp*Rh(bpy)(H2O)]^2+. In a second experiment c[Cp*Rh(bpy)(H2O)]^2+) was maintained at 0.02 mM whereas the HbpA content varied form 0.22 U*ml^−1 to 1.52 U*ml^−1.

[4] = tested on: several dehydrogenases (HLADH, TBADH, etc.); conditions: previously reported [13]; cited from earlier work
[5] = FIG. 10: 37 °C, 0.2 mM [Cp*Rh(bpy)(H2O)]2+, 0.05 mM FAD, 2 mM styrene, 1.16 μM StyA
[6] = [Cp*Rh(bpy)] 0.02 mM, [HbpA] 0.22 U/ml
[7] = [Cp*Rh(bpy)] 0.02 mM, [HbpA] 0.44 U/ml
[8] = [Cp*Rh(bpy)] 0.02 mM, [HbpA] 1.52 U/ml

Sequence of monooxygenase component of styrene monooxygenase (StyA) (O50214 whole entry): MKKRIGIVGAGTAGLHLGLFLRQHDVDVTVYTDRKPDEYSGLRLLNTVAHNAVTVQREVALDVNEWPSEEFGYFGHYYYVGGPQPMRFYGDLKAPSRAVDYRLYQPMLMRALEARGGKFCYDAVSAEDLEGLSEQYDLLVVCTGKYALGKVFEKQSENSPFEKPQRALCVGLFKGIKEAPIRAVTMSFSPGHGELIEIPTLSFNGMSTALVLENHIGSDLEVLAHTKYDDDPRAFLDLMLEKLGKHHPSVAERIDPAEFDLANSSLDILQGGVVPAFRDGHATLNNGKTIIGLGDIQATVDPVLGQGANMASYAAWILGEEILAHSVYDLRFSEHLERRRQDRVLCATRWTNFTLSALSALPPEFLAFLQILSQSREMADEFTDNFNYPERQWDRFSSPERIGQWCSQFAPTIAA

Cc1c(C)c(C)[c-](C)c1C.O.[Rh+3].c1ccc(-c2ccccn2)nc1 [[Cp*Rh(bpy)(H2O)]^2+]
[Cp*Rh(bpy)(H2O)]2+ performance TF [1, 5]: 11.3 h⁻¹
[Cp*Rh(bpy)(H2O)]2+ performance TTN [1, 5]: 5.3
relative activity ([1]; calculated on FADH2 generation rate determined in the absence of StyA, FIG. 10 conditions): 16.1^c %
catalytic performance (hydrogen peroxide formation) ([2]; 0.2 mM [Cp*Rh(bpy)(H2O)]2+, 0.05 mM FAD, 1.16 μM StyA, 150 mM sodium formate, 37 °C, no styrene): 48 turnovers per hour
catalytic activities from initial H2O2-formation rates ([2]; 37 °C, c(NaHCO2) 0.15 M, 19 μM [Cp*Rh(bpy)(H2O)]2+, 0-200 μM FAD): 69.9±2.5 catalytic cycles per hour
overall catalytic activity (hydrogen peroxide and styrene oxide) ([2]; as E39, supplemented with 2 mM styrene, after 15 min): 47 turnovers per hour
effect of incubation on HbpA enzymatic activity [3]: complete loss of enzymatic activity
HbpA activity at t = 60 min [3, 6]: 16%
t25% [3, 6]: 39 min
HbpA activity at t = 60 min [3, 7]: 42%
t25% [3, 7]: 173 min
HbpA activity at t = 60 min [3, 8]: 68%
t25% [3, 8]: >1260 min
t25% ([3]; [Hbpa] 0.11 U/ml, [Cp*Rh(bpy)] 0.02 mM, 30 °C): 70 min
t25% ([3]; [Hbpa] 0.11 U/ml, [Cp*Rh(bpy)] 0.04 mM, 30 °C): 12 min
t25% ([3]; [Hbpa] 0.11 U/ml, [Cp*Rh(bpy)] 0.1 mM, 30 °C): <5 min
influence on the activity of several dehydrogenases [4]: no influence on the activity
